We go through four molecules from PMC6386482, “ASB20123: A novel C-type natriuretic peptide derivative for treatment of growth failure and dwarfism” (PLoS ONE, 2019).

The conditions of series [1]: mouse, in vivo. How it is done:
Three-week-old juvenile female ICR mice (n = 5 or 10/group) received ASB20123 sc bolus injections once daily for 8 weeks. Seven-week-old male SD rats (n = 5/group) received ASB20123 as multiple sc bolus injections or a continuous sc infusion using an osmotic mini-pump (ALZET osmotic pump, Durect Corporation, USA) for 1 or 12 weeks. Growth rate of each animal was monitored throughout the treatment and washout periods. Body weight, body (naso-anal) length, and tail length were measured weekly, and femoral and tibial lengths were measured with digital calipers on the final day. Osteocalcin concentration in mouse serum was measured as a marker of bone formation using commercially available ELISA kits (Mouse Osteocalcin EIA kit, Biomedical Technologies Inc., USA). Anti-ASB20123 antibody in mouse serum was measured using commercially available ELISA kits (Protein detector ELISA Kit, Kirkegaard & Perry Laboratories, Inc., USA) and ASB20123. The blood samples were collected from the posterior vena cava at the end of the dosing period and centrifuged to obtain serum samples. CNP immunoreactivity in rat plasma was determined by RIA as mentioned in the method of PK studies. The blood samples were collected from cervical vein at 15 min after sc bolus dosing or before necropsy for animals given a continuous sc infusion.

Series [2] can be described thus: Plasma CNP immunoreactivity after sc bolus in vehicles containing ECM in rats. How it is done:
We prepared CNP(1–22) and ASB20123 dissolved in vehicles containing ECM and delivered them to rats as sc bolus injections at 0.58 mg/kg for evaluation of their in vivo effects (S2 Fig).

The nature of series [3]: PK of CNP immunoreactivity after single intravenous administration in rats. Type of series: in vivo, rat.
Series [4] in a line: PK of CNP immunoreactivity after single subcutaneous administration in rats. Type of series: in vivo, rat.
The test system of series [5] is Crouzon syndrome mouse model. The following applies: cited from earlier work. The text has this:
(§1) In the previous study, we designed and evaluated some CNP/ghrelin chimeric peptides as novel CNP derivatives. […] In the current study, we prepared another novel CNP/ghrelin chimeric peptide ASB20123 and evaluated its pharmacological activities. ASB20123 is comp ...

Another series has as its system Fgfr3^ach mice. The settings on record: cited from earlier work.
From the text: as §1

The conditions of series [6]: cited from earlier work. The text has this: C-type natriuretic peptide (CNP) is a member of the natriuretic peptide (NP) family that also includes atrial natriuretic peptide (ANP) and brain natriuretic peptide (BNP). […] However, CNP is expressed in various tissues, such as the central nervous system, reproductive tract, bone, and endothelium of blood ...
Series [7] concerns neutral endopeptidase (NEP). The settings on record: cited from earlier work.
The next series has as its system female ICR mice. As to the kind of experiment: Skeletal growth of mice given CNP(1–22) or human CNP(1–53) sc for 3 weeks. Type of series: in vivo, mouse. The settings on record: subcutaneous administration for 3 weeks (S3 Fig). An excerpt: Interstitial diffusion of macromolecules, such as HA and glycosaminoglycan, is affected by their physiochemical characteristics, including their size, charge, and hydrophilicity, as well as their interactions with the endogenous components present in the interstitium. Interaction between ASB20123 and the endogenous molecules might play a role in the diffusion and absorption processes. […] The C-terminal part of ASB20123 might interact with ECM components, such as HA and glycosaminoglycan, resulting in a delay of its absorption from the sc tissue to the circulation and improvement of its stability.
Supplementary file pone.0212680.s003.tif: S3 Fig Body weight and body length of female ICR mice subcutaneously administered CNP(1–22) and human CNP(1–53) for 3 weeks. (TIF) Click here for additional data file.

The mark [8] stands for this setting: anesthetized male SD rats, single iv 20 nmol/kg, plasma CNP immunoreactivity by RIA, mean of 3 rats.
Setting [9] is: anesthetized male SD rats, single sc 50 nmol/kg, plasma CNP immunoreactivity by RIA, mean of 3 rats.

Ends that are not written are not given here. Peptide text beside a SMILES is read from it.

`CC[C@H](C)[C@@H]1NC(=O)[C@H](CCCNC(=N)N)NC(=O)[C@H](CC(=O)O)NC(=O)[C@H](CC(C)C)NC(=O)[C@H](CCCCN)NC(=O)[C@H](CC(C)C)NC(=O)CNC(=O)[C@H](Cc2ccccc2)NC(=O)[C@@H](NC(=O)CNC(=O)[C@H](CCCCN)NC(=O)[C@H](CO)NC(=O)[C@H](CC(C)C)NC(=O)CN)CSSC[C@@H](C(=O)N[C@H](C(=O)N[C@@H](CCC(N)=O)C(=O)N[C@@H](CCC(N)=O)C(=O)N[C@@H](CCCNC(=N)N)C(=O)N[C@@H](CCCCN)C(=O)N[C@@H](CC(=O)O)C(=O)N[C@@H](CO)C(=O)N[C@@H](CCCCN)C(=O)N[C@@H](CCCCN)C(=O)N2CCC[C@H]2C(=O)N2CCC[C@H]2C(=O)N[C@@H](C)C(=O)N[C@@H](CCCCN)C(=O)N[C@@H](CC(C)C)C(=O)N[C@@H](CCC(N)=O)C(=O)N2CCC[C@H]2C(=O)N[C@@H](CCCNC(=N)N)C(=O)O)C(C)C)NC(=O)CNC(=O)[C@H](CC(C)C)NC(=O)CNC(=O)[C@H](CO)NC(=O)[C@H](CCSC)NC(=O)[C@H](CO)NC(=O)CNC1=O` [ASB20123] (HELM PEPTIDE1{G.L.S.K.G.C.F.G.L.K.L.D.R.I.G.S.M.S.G.L.G.C.V.Q.Q.R.K.D.S.K.K.P.P.A.K.L.Q.P.R}$PEPTIDE1,PEPTIDE1,6:R3-22:R3$$$V2.0): the “Anti-ASB20123 antibody in serum” value in series [1] is “not detected”. In series [2] (rat, in vivo, sc, 0.58 mg/kg), the AUC entry was “higher than that when ASB20123 was dissolved in saline” and the “Time to reach the maximum plasma CNP concentration (Cmax)” value is listed as “delayed”. Besides, in series [3] (rat, in vivo, iv), the T1/2 is listed as 31.3 min, the Vdss is 0.429 L/kg and the “Vdss relative to that of CNP(1–22)” value is reported as 6.7 fold. Also, in series [4] (rat, in vivo, sc), the T1/2 was 32.1 min and the Tmax is 20.0 min.

For BMN-111, the Body length result (in [5]; with Fgfr3^ach mice) was “increased the body length” throughout.

Turning to `CC[C@H](C)[C@@H]1NC(=O)[C@H](CCCNC(=N)N)NC(=O)[C@H](CC(=O)O)NC(=O)[C@H](CC(C)C)NC(=O)[C@H](CCCCN)NC(=O)[C@H](CC(C)C)NC(=O)CNC(=O)[C@H](Cc2ccccc2)NC(=O)[C@@H](NC(=O)CNC(=O)[C@H](CCCCN)NC(=O)[C@H](CO)NC(=O)[C@H](CC(C)C)NC(=O)CN)CSSC[C@@H](C(=O)O)NC(=O)CNC(=O)[C@H](CC(C)C)NC(=O)CNC(=O)[C@H](CO)NC(=O)[C@H](CCSC)NC(=O)[C@H](CO)NC(=O)CNC1=O` [CNP(1–22), C-type natriuretic peptide], the “PK profile, effect of vehicle components” value in [2] (rats, sc bolus 0.58 mg/kg in vehicles containing ECM) is “not affected by its vehicle components”. In series [3] (setting [8]), the “AUC0→∞” value is 320 pmol・min/mL, the CLtot was 63.9 mL/min/kg, the “MRT0→∞” value came to 1.02 min and the T1/2 is 1.42 min. In [3] (setting [8]), this molecule returned a Vdss of 0.0642 L/kg. In addition, the BA in series [4] (anesthetized male SD rats, single sc 50 nmol/kg, bioavailability, mean of 3 rats) is on record as 19%. For the same molecule, in series [4] (setting [9]), the “AUC0→∞” value stood at 152 pmol・min/mL, the Cmax was found to be 9.02 nM, the “MRT0→∞” value is 13.9 min and the T1/2 is 10.0 min. Also, the Tmax in series [4] (setting [9]) was 5.0 min. Moreover, the “Clearance of exogenous peptide from the circulation” value in [6] is on record as “rapidly cleared from the circulation”.

As to “CNP(1–53): 53-residue peptide generated from pro-CNP (DLRVDTKSRAAWARLLQEHPNARKYKGANKKGLSKGCFGLKLDRIGSMSGLGC; ends and bridges not checked; cysteine pairing not given here; UniProt P23582 74-126, looked up)”, in [7], the “Stability against neutral endopeptidase (NEP)” value was “resistant to proteolytic inactivation”. Also, the “Skeletal growth compared to CNP(1–22)” value with female ICR mice was “more potently than that induced by CNP(1–22) administration”.

The Vdss is the apparent volume that relates the amount in the body to the concentration in plasma or blood. A lower Vdss goes with confinement near the circulation. Broadly, the Tmax is the time at which the peak concentration occurs. The term Cmax denotes the maximum level reached in the sampled fluid or tissue.
